# Source: patent publication US10822317B2, “Methods and compositions for wound healing” (QBiotics Limited, priority 2013, dated 2020)
# Legend:
# [1] = tested on: TGF-β1-stimulated dermal fibroblasts; assay: Differentiation of adult dermal fibroblasts into myofibroblasts (α-SMA expression); assay type: cell-based, human
# Description: The effects of Compounds […] and 37 on dermal fibroblast differentiation to myofibroblasts was examined by the extent of α-SMA expression by TGF-βi-stimulated dermal fibroblasts.
# Following trypsinization, fibroblasts were seeded in 8-well, Permanoxchamber slides (VWR International) in DMEM medium, containing antibiotics, 2 mM L-glutamine and 10% foetal calf serum (250 μL, all purchased from Invitrogen); at a cell density of 2.5×10^4 cells/well and maintained at 37° C. in 5% CO2/95% air for 48 h.
# At 48 hr, fibroblasts were growth-arrested in serum-free DMEM for 48 hr and then replaced with serum-free DMEM (250 μL), containing Compounds 1 or 37 at concentrations of 0, 0.001, 0.01, 0.1, 1.0 and 10.0 μg/mL (3 wells/concentration/compound) and TGF-β1 (10 ng/ml, Peprotech). Fibroblasts were maintained at 37° C. in 5% CO2/95% air for 72 hr.
# At 72 hr, chamber slide wells were washed with PBS (×1, 250 μL) and fixed in 4% paraformaldehyde (100 μL/well) for 10 min. The chamber slide wells were then washed again with PBS (×1, 250 μl), treated with 0.1% Triton X-100 in PBS (100 μL, Sigma) for 5 min and re-washed with PBS (×1, 250 μL). Wells were blocked with 1% BSA in PBS (250 μL, Sigma) for 1 h and washed (×3) in 0.1% BSA/PBS.
# Wells were incubated with monoclonal mouse anti-human α-SMA, clone 1A4 (1:100, 150 ul, Sigma) at 4° C. overnight, washed (×6) in 0.1% BSA/PBS and incubated with Alexa Fluor 488 goat anti-mouse IgG antibody (1:1000, 250 μL, Invitrogen), at room temperature for 1 h, under darkness. Chamber slides were washed (×6) in 0.1% BSA/PBS and counterstained with Hoescht 33258 solution for 30 min under darkness (1:2000, 250 μL, Sigma). Chamber were subsequently removed for slides and treated with Fluorsave (Santa Cruz) for 10 min under darkness. Slides were viewed by fluorescence microscopy (Leica Microsystem), with digital images being capturedat ×200 magnification. Digital images were processed using HC Image J Software.
# [2] = tested on: wounds following necrosis and sloughing of spontaneous tumours; assay: Resolution of wounds after sloughing of spontaneous tumours treated by intratumoural injection, canine; assay type: in vivo; details: for Average days from tumour slough to wound closure: Canine
# Description: necrosis and sloughing of spontaneous tumours that had been treated by intratumoural injection of Compound 1 (30% 1,2 propanediol formulation at either 0.5 or 1.0 mg/mL concentration) in twenty-four companion animals are summarised in Table 17.
# Note that all wounds were managed as open wounds and no bandaging, dressings, lotions or concomitant medications were used in any of these cases.
structure (smiles),measurement,setting,value
"CC=C(C)C(=O)OC1C(C)C2(O)C(C3OC3(CO)C(O)C3(O)C(=O)C(C)=CC32)C2C(C)(C)C12OC(=O)C(C)CC (stereo not drawn) [Compound 1, 12-tigloyl-13-(2-methylbutanoyl)-6,7-epoxy-4,5,9,12,13,20-hexahydroxy-1-tigliaen-3-one]",differentiation of TGF-β1-treated adult dermal fibroblasts into myofibroblasts,"[1]; 0.001 to 10.0 μg/mL, 72 hr",affected differentiation into myofibroblasts in a concentration-dependent manner
same,α-SMA stress fibre formation and polygonal cellular morphology (myofibroblast differentiation),"[1]; TGF-β1 10 ng/ml, 72 hr, 0.1 μg/mL",lacked the α-SMA stress fibre formation and the typical polygonal cellular morphology
same,myofibroblast morphology,[1]; between 1 and 10 μg/mL,subtle alterations in myofibroblast morphology
same,"No. of dogs: Tissue deficit at wound site, Minor",[2]; 5 to 10% tissue deficit across the original wound area,0
same,"No. of dogs: Tissue deficit at wound site, Nil or minimal",[2]; <5% tissue deficit across the original wound area,15
same,"No. of dogs: Tissue deficit at wound site, Substantial",[2]; >10% tissue deficit across the original wound area,0
same,Average days from tumour slough to wound closure,"[2]; wound size class 0.25 to 9 cm^2, 7 cases",24 ± 16 days
same,Average days from tumour slough to wound closure,"[2]; wound size class 9 to 50 cm^2, 5 cases",40 ± 15 days
same,Average days from tumour slough to wound closure,"[2]; wound size class >50 to 130 cm^2, 3 cases",62 ± 18 days
same,"No. of dogs: Hair regrowth on wound area, Sparse",[2]; Hair covers <50% of original wound area,7
same,"No. of dogs: Hair regrowth on wound area, Partial",[2]; Hair covers >50% of original wound area,1
same,"No. of dogs: Hair regrowth on wound area, Full",[2]; Hair covers >95% of original wound area,12
same,"No. of dogs: Scarring & skin thickening, Minor",[2]; Localised scar covering <10% of original wound area,1
same,"No. of dogs: Scarring & skin thickening, Substantial",[2]; Scarring covering >10% of original wound area,1
same,"No. of dogs: Scarring & skin thickening, Nil or minimal",[2]; Scarring not obvious visually or by touch,13
same,"No. of dogs: Change in hair colour, No",[2]; healed wound site,15
same,"No. of dogs: Change in hair colour, Yes",[2]; healed wound site,0
same,"No. of dogs: Skin pigmentation, Hyperpigmentation",[2]; healed wound site,0
same,"No. of dogs: Skin pigmentation, Hypopigmentation",[2]; healed wound site,3
same,"No. of dogs: Skin pigmentation, Normal",[2]; healed wound site,11
same,"No. of dogs: Skin pigmentation, Patchy",[2]; healed wound site,1
